Assay results published in patent US12410207B2, “Galactoside inhibitor of galectins” (GALECTO BIOTECH AB, priority 2019, dated 2025).
One block for each compound: values may come before it.

Experiments:
Galectin-3 = Galectin-3 (Homo sapiens, UniProt P17931); test: Fluorescence anisotropy assay, inhibition of galectin / fluorescein tagged saccharide probe interaction; details: compound as inhibitor of probe binding
Procedure: (§1) The affinity of Example 1-45 for galectins were determined by a fluorescence anisotropy assay where the compound was used as an inhibitor of the interaction between galectin and a fluorescein tagged saccharide probe as described Sörme, P., Kahl-Knutsson, B., Huflejt, M., Nilsson, U. J., and Leffler H. (2004) Fluorescence polarization as an analytical tool to evaluate galectin-ligand interactions. Anal. Biochem. 334: 36-47, (Sorme et al., 2004) and Monovalent interactions of Galectin-1 By Salomonsson, Emma; Larumbe, Amaia; Tejler, Johan; Tullberg, Erik; Rydberg, Hanna; Sundin, Anders; Khabut, Areej; Frejd, Torbjorn; Lobsanov, Yuri D.; Rini, James M.; et al, From Biochemistry (2010), 49(44), 9518-9532, (Salomonsson et al., 2010).

Galectin-1 = Galectin-1 (Homo sapiens, UniProt P09382); test: as above; details: compound as inhibitor of probe binding
Sequence of Galectin-1 (P09382 whole entry, species assumed): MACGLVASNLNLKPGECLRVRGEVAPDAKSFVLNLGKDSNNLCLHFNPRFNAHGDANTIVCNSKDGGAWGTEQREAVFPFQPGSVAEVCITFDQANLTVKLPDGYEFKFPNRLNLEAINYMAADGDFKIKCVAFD
Procedure: as §1

Sequence of Galectin-3 (P17931 whole entry, species assumed): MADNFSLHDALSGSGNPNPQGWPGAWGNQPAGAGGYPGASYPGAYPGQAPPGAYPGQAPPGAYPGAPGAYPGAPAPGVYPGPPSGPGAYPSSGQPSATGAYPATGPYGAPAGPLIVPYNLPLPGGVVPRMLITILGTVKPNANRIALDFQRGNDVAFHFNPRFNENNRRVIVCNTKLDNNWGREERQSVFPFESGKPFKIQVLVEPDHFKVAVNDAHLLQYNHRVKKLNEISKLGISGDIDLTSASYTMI

Kd (Galectin-3): 1.5 µM | Kd (Galectin-1): 0.59 µM
SMILES: OCC1O[C@H](Sc2cncc(Cl)c2)C(O)C(n2cc(-c3nc(Cl)cs3)cn2)[C@H]1O (stereo partly drawn) [Example 27, 5-Chloropyridin-3-yl 3-[4-(4-chlorothiazol-2-yl)-1H-1,2-pyrazol-1-yl]-3-deoxy-1-thio-α-D-galactopyranoside]

Kd (Galectin-3): 1.2 µM | Kd (Galectin-1): 0.52 µM
SMILES: OCC1O[C@H](Sc2cncc(Br)c2)C(O)C(n2cc(-c3nc(Cl)cs3)cn2)[C@H]1O (stereo partly drawn) [Example 28, 5-Bromopyridin-3-yl 3-[4-(4-chlorothiazol-2-yl)-1H-1,2-pyrazol-1-yl]-3-deoxy-1-thio-α-D-galactopyranoside]

Kd (Galectin-3): 1.5 µM | Kd (Galectin-1): 0.49 µM
SMILES: N#Cc1ccc(Cl)cc1S[C@H]1OC(CO)[C@H](O)C(n2cc(-c3nc(Cl)cs3)cn2)C1O (stereo partly drawn) [Example 29, 5-Chloro-2-cyanophenyl 3-[4-(4-chlorothiazol-2-yl)-1H-1,2-pyrazol-1-yl]-3-deoxy-1-thio-α-D-galactopyranoside]

Kd (Galectin-3): 1.1 µM | Kd (Galectin-1): 0.51 µM
SMILES: N#Cc1ncc(Cl)cc1S[C@H]1OC(CO)[C@H](O)C(n2cc(-c3nc(Cl)cs3)cn2)C1O (stereo partly drawn) [Example 30, 5-Chloro-2-cyanopyridin-3-yl 3-[4-(4-chlorothiazol-2-yl)-1H-1,2-pyrazol-1-yl]-3-deoxy-1-thio-α-D-galactopyranoside]

Kd (Galectin-3): 3.4 µM | Kd (Galectin-1): 0.14 µM
SMILES: OCC1O[C@H](Sc2cncc(Cl)c2)C(O)C(n2cc(-c3csc(O)n3)cn2)[C@H]1O (stereo partly drawn) [Example 31, 5-Chloropyridin-3-yl 3-deoxy-3-[4-(2-hydroxythiazol-4-yl)-1H-1,2-pyrazol-1-yl]-1-thio-α-D-galactopyranoside]

Kd (Galectin-3): 0.067 µM | Kd (Galectin-1): 12.7 µM
SMILES: OCC1O[C@H](Sc2cncc(Cl)c2)C(O)C(n2cnc(-c3cc(F)c(F)c(F)c3)c2)[C@H]1O (stereo partly drawn) [Example 36, 5-Chloropyridin-3-yl 3-deoxy-3-[4-(3,4,5-trifluorophenyl)-1H-1,3-imidazol-1-yl]-1-thio-α-D-galactopyranoside]

Kd (Galectin-3): 0.013 µM | Kd (Galectin-1): 5.1 µM
SMILES: OCC1O[C@H](Sc2cc(Cl)cnc2N2CC(CO)(CO)C2)C(O)C(n2cc(-c3cc(F)c(F)c(F)c3)cn2)[C@H]1O (stereo partly drawn) [Example 37, 5-Chloro-[3,3-bis(hydroxymethyl)azetidin-1-yl]pyridin-3-yl 3-deoxy-3-[4-(3,4,5-trifluorophenyl)-1H-1,2-pyrazol-1-yl]-1-thio-α-D-galactopyranoside]

Kd (Galectin-3): 0.45 µM | Kd (Galectin-1): 51 µM
SMILES: COC1C(n2ccc(-c3cc(F)c(F)c(F)c3)n2)[C@@H](O)C(CO)O[C@@H]1Sc1cncc(Cl)c1 (stereo partly drawn) [Example 38, 5-Chloropyridin-3-yl 3-deoxy-3-[3-(3,4,5-trifluorophenyl)-1H-1,2-pyrazol-1-yl]-2-O-methyl-1-thio-α-D-galactopyranoside]

Kd (Galectin-3): 0.3 µM | Kd (Galectin-1): > 100 µM
SMILES: OC[C@H]1O[C@H](Sc2ccc(Cl)c(Cl)c2)[C@H](O)[C@@H](c2nc(-c3cc(F)c(F)c(F)c3)co2)[C@H]1O [Example 39, 3,4-Dichlorophenyl 3-deoxy-3-[4-(3,4,5-trifluorophenyl)-oxazol-2-yl]-1-thio-α-D-galactopyranoside]

Further lines, the compound ahead of its results:

SMILES: OCC1O[C@H](Sc2cccc(Cl)c2)C(O)C(n2cc(-c3cccc(F)c3)cn2)[C@H]1O (stereo partly drawn) [Example 1, 3-Chlorophenyl 3-deoxy-3-[4-(3-fluorophenyl)-1H-1,2-pyrazol-1-yl]-1-thio-α-D-galactopyranoside]
Kd (Galectin-3): 0.27 µM | Kd (Galectin-1): 19.9 µM

SMILES: Cc1c(F)cc(-c2cnn(C3C(O)[C@@H](Sc4cncc(Cl)c4)OC(CO)[C@@H]3O)c2)cc1F (stereo partly drawn) [Example 4, 5-Chloropyridin-3-yl 3-deoxy-3-[4-(3,5-difluoro-4-methylphenyl)-1H-1,2-pyrazol-1-yl]-1-thio-α-D-galactopyranoside]
Kd (Galectin-3): 0.009 µM | Kd (Galectin-1): 43 µM

SMILES: OCC1O[C@H](Sc2cncc(Br)c2)C(O)C(n2cc(-c3cc(F)c(F)c(F)c3)cn2)[C@H]1O (stereo partly drawn) [Example 5, 5-Bromopyridin-3-yl 3-deoxy-3-[4-(3,4,5-trifluorophenyl)-1H-1,2-pyrazol-1-yl]-1-thio-α-D-galactopyranoside]
Kd (Galectin-3): 0.025 µM | Kd (Galectin-1): 14.8 µM

SMILES: C#Cc1cncc(S[C@H]2OC(CO)[C@H](O)C(n3cc(-c4cc(F)c(Cl)c(F)c4)cn3)C2O)c1 (stereo partly drawn) [Example 7, 5-Ethynylpyridin-3-yl 3-[4-(4-chloro-3,5-difluorophenyl)-1H-1,2-pyrazol-1-yl]-3-deoxy-1-thio-α-D-galactopyranoside]
Kd (Galectin-3): 0.014 µM | Kd (Galectin-1): 30 µM

SMILES: N#Cc1ccc(Cl)cc1S[C@H]1OC(CO)[C@H](O)C(n2cc(-c3cc(F)c(Cl)c(F)c3)cn2)C1O (stereo partly drawn) [Example 8, 5-Chloro-2-cyanophenyl 3-[4-(4-chloro-3,5-difluorophenyl)-1H-1,2-pyrazol-1-yl]-3-deoxy-1-thio-α-D-galactopyranoside]
Kd (Galectin-3): 0.02 µM | Kd (Galectin-1): 48 µM

SMILES: O=C(c1ccc(Cl)cc1S[C@H]1OC(CO)[C@H](O)C(n2cc(-c3cc(F)c(Cl)c(F)c3)cn2)C1O)N1CCC1 (stereo partly drawn) [Example 9, 2-(N-azetidinyl-carbonyl)-5-chlorophenyl 3-[4-(4-chloro-3,5-difluorophenyl)-1H-1,2-pyrazol-1-yl]-3-deoxy-1-thio-α-D-galactopyranoside]
Kd (Galectin-3): 0.012 µM | Kd (Galectin-1): 19.2 µM

SMILES: O=C(c1ccc(Cl)cc1S[C@H]1OC(CO)[C@H](O)C(n2cc(-c3cc(F)c(F)c(F)c3)cn2)C1O)N1CCC1 (stereo partly drawn) [Example 10, 2-(N-azetidinyl-carbonyl)-5-chlorophenyl 3-deoxy-3-[4-(3,4,5-trifluorophenyl)-1H-1,2-pyrazol-1-yl]-1-thio-α-D-galactopyranoside]
Kd (Galectin-3): 0.015 µM | Kd (Galectin-1): 6.8 µM

SMILES: N#Cc1ccc(Cl)cc1S[C@H]1OC(CO)[C@H](O)C(n2cc(-c3cc(F)c(F)c(F)c3)cn2)C1O (stereo partly drawn) [Example 11, 5-Chloro-2-cyanophenyl 3-deoxy-3-[4-(3,4,5-trifluorophenyl)-1H-1,2-pyrazol-1-yl]-1-thio-α-D-galactopyranoside]
Kd (Galectin-3): 0.024 µM | Kd (Galectin-1): 9.8 µM

SMILES: N#Cc1ncc(Cl)cc1S[C@H]1OC(CO)[C@H](O)C(n2cc(-c3cc(F)c(Cl)c(F)c3)cn2)C1O (stereo partly drawn) [Example 13, 5-Chloro-2-cyanopyridin-3-yl 3-[4-(4-chloro-3,5-difluorophenyl)-1H-1,2-pyrazol-1-yl]-3-deoxy-1-thio-α-D-galactopyranoside]
Kd (Galectin-3): 0.014 µM | Kd (Galectin-1): 34 µM

SMILES: Cc1cnc(C#N)c(S[C@H]2OC(CO)[C@H](O)C(n3cc(-c4cc(F)c(F)c(F)c4)cn3)C2O)c1 (stereo partly shown) [Example 14]
Kd (Galectin-3): 0.08 µM | Kd (Galectin-1): 51 µM

SMILES: C#Cc1cnc(C#N)c(S[C@H]2OC(CO)[C@H](O)C(n3cc(-c4cc(F)c(F)c(F)c4)cn3)C2O)c1 (stereo partly drawn) [Example 16, 2-Cyano-5-ethynylpyridin-3-yl 3-deoxy-3-[4-(3,4,5-trifluorophenyl)-1H-1,2-pyrazol-1-yl]-1-thio-α-D-galactopyranoside]
Kd (Galectin-3): 0.021 µM | Kd (Galectin-1): 12.7 µM

SMILES: OCC1O[C@H](Sc2cncc(Cl)c2)C(O)C(n2cc(-c3cccc(F)n3)cn2)[C@H]1O (stereo partly drawn) [Example 18, 5-Chloropyridin-3-yl 3-deoxy-3-[4-(6-fluoropyridin-2-yl)-1H-1,2-pyrazol-1-yl]-1-thio-α-D-galactopyranoside]
Kd (Galectin-3): 0.69 µM | Kd (Galectin-1): 12.3 µM

SMILES: OCC1O[C@H](Sc2cncc(Cl)c2)C(O)C(n2cc(-c3ccc(F)cn3)cn2)[C@H]1O (stereo partly drawn) [Example 19, 5-Chloropyridin-3-yl 3-deoxy-3-[4-(5-fluoropyridin-2-yl)-1H-1,2-pyrazol-1-yl]-1-thio-α-D-galactopyranoside]
Kd (Galectin-3): 1.6 µM | Kd (Galectin-1): 4.1 µM

SMILES: OCC1O[C@H](Sc2cncc(Cl)c2)C(O)C(n2cc(-c3cc(F)ccn3)cn2)[C@H]1O (stereo partly drawn) [Example 20, 5-Chloropyridin-3-yl 3-deoxy-3-[4-(4-fluoropyridin-2-yl)-1H-1,2-pyrazol-1-yl]-1-thio-α-D-galactopyranoside]
Kd (Galectin-3): 0.63 µM | Kd (Galectin-1): 10.2 µM

SMILES: OCC1O[C@H](Sc2cncc(Cl)c2)C(O)C(n2cc(-c3cc[nH]n3)cn2)[C@H]1O (stereo partly drawn) [Example 21, 5-Chloropyridin-3-yl 3-deoxy-3-[4-(1H-1,2-pyrazol-3-yl)-1H-1,2-pyrazol-1-yl]-1-thio-α-D-galactopyranoside]
Kd (Galectin-3): 12.7 µM | Kd (Galectin-1): 8.9 µM

SMILES: Cn1ccc(-c2cnn(C3C(O)[C@@H](Sc4cncc(Cl)c4)OC(CO)[C@@H]3O)c2)n1 (stereo partly drawn) [Example 22, 5-Chloropyridin-3-yl 3-deoxy-3-[4-(1-methyl-1,2-pyrazol-3-yl)-1H-1,2-pyrazol-1-yl]-1-thio-α-D-galactopyranoside]
Kd (Galectin-3): 9.6 µM | Kd (Galectin-1): 14.7 µM

SMILES: OCC1O[C@H](Sc2cncc(Cl)c2)C(O)C(n2cc(-c3ncc[nH]3)cn2)[C@H]1O (stereo partly drawn) [Example 23, 5-Chloropyridin-3-yl 3-deoxy-3-[4-(1H-imidazol-2-yl)-1H-1,2-pyrazol-1-yl]-1-thio-α-D-galactopyranoside]
Kd (Galectin-3): 9 µM | Kd (Galectin-1): 3.4 µM

SMILES: OCC1O[C@H](Sc2cncc(Cl)c2)C(O)C(n2cc(-c3ncco3)cn2)[C@H]1O (stereo partly drawn) [Example 24, 5-Chloropyridin-3-yl 3-deoxy-3-[4-(oxazol-2-yl)-1H-1,2-pyrazol-1-yl]-1-thio-α-D-galactopyranoside]
Kd (Galectin-3): 10.3 µM | Kd (Galectin-1): 6.1 µM

SMILES: OCC1O[C@H](Sc2cncc(Cl)c2)C(O)C(n2cc(-c3cscn3)cn2)[C@H]1O (stereo partly drawn) [Example 25, 5-Chloropyridin-3-yl 3-deoxy-3-[4-(thiazol-4-yl)-1H-1,2-pyrazol-1-yl]-1-thio-α-D-galactopyranoside]
Kd (Galectin-3): 9.6 µM | Kd (Galectin-1): 1.3 µM

SMILES: OCC1O[C@H](Sc2cncc(Cl)c2)C(O)C(n2cc(-c3nccs3)cn2)[C@H]1O (stereo partly drawn) [Example 26, 5-Chloropyridin-3-yl 3-deoxy-3-[4-(thiazol-2-yl)-1H-1,2-pyrazol-1-yl]-1-thio-α-D-galactopyranoside]
Kd (Galectin-3): 9.9 µM | Kd (Galectin-1): 2.3 µM
